Measurements reported in patent publication US20110319640A1, “LARGE-SCALE PURIFICATION OF 2-PYRONE-4,6-DICARBOXYLIC ACID” (KABUSHIKI KAISHA TOYOTA JIDOSHOKKI, priority 2007, published 2011).

Assay: water solubility of PDC and PDC complex salts (FIG. 2)
Format: physicochemical
Details: in water; free compound
Description: Hereinafter, a complex salt formed centering on the Carbonyl group of PDC may be referred to as “a PDC complex salt,” in order to distinguish from a complex salt described in the section of salts of cations. The structure of a […] complex salt is described in many references (for example, Acta. Cryst. (1992) C48, 460-465).

water solubility: 182 mM
SMILES: O=C(O)c1cc(C(=O)O)oc(=O)c1 [free PDC, 2-pyrone-4,6-dicarboxylic acid]
